# Laboratory results: patent US20240300934A1, “COMPOUNDS FOR MODULATING MYCOBACTERIUM TUBERCULOSIS RESPONSE” (priority 2021, published 2024)
# Like-named read-outs stand apart in the source and are kept apart here.
# How the values were obtained:
# [1] = Human plasma protein binding; assay type: in vitro ADME
# Method: (§1) Assays examining mouse and human liver microsomal stability, kinetic aqueous solubility, mouse and human plasma protein binding and stability, and human cytochrome P450 inhibition characteristics of the compounds were run by BioDuro, Incorporated, using standard protocols as previously described (Wang et al, 2020). hERG inhibition assays were also performed by BioDuro, Incorporated.
# [2] = molecular target: human CYP 450 2C19 (Homo sapiens, UniProt P33261); experiment: Human cytochrome P450 inhibition, 2C19; assay type: in vitro ADME; settings: 10 μM
# [3] = Mouse plasma protein binding; assay type: in vitro ADME
# [4] = test system: J774 cells; experiment: Intracellular drug accumulation assay in J774 cells; settings: 24 h exposure; uninfected J774 cells
# [5] = molecular target: T1, human CYP 450 1A2 (Homo sapiens, UniProt P05177); experiment: Human cytochrome P450 inhibition, 1A2; assay type: in vitro ADME; settings: 10 μM
# T1 sequence (P05177 1-516): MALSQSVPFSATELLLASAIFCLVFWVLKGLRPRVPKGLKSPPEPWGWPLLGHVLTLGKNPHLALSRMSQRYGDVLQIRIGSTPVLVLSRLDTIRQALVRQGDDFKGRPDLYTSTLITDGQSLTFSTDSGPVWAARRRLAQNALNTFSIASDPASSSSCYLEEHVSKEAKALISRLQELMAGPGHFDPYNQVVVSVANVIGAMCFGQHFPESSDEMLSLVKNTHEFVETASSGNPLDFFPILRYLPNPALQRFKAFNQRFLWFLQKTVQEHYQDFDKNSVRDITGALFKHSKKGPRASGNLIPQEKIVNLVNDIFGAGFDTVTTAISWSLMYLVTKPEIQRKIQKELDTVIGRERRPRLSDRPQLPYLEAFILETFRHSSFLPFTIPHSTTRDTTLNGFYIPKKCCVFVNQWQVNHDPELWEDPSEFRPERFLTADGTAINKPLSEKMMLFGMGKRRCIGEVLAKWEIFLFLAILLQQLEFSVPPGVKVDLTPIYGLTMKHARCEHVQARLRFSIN
# [6] = Kinetic aqueous solubility in pH 7.4 PBS; assay type: physicochemical; settings: read-out: Kinetic Aqueous Solubility S
# Method: as §1
# [7] = test system: Mtb; experiment: Mtb growth assay in standard 7H9 media (OD600); settings: 10 μM
# Source text: Bacterial growth was tracked by measuring OD600 every 3 days for 12 days. […] Bacterial growth was tracked by measurement of D600 every 3 days over 12 days.
# [8] = test system: Mtb; experiment: C3HeB/FeJ murine Mtb infection model; assay type: in vivo, C3HeB/FeJ mice
# Method: C3HeB/FeJ wild type mice (Jackson Laboratories) were infected intranasally with 10^3 CFUs of Mtb (35 μl), under light anesthesia with 2% isoflurane (MacGilvary et al, 2019; Sukumar et al, 2014; Tan et al, 2013). […] The next day the suspension was homogenized by bead beating with 5 mm steel beads in a TOMY microtube mixer (2×20 s), and stored at 4° C. until use. […] Administration began at two or six weeks post-infection as indicated. At time of sacrifice, the left lobe and accessory right lobe of the lung were homogenized in PBS+0.05% Tween 80 and serial dilutions plated on 7H10 agar plates with 100 μg/ml cycloheximide for bacterial load determination. The remaining three right lobes were fixed in 4% PFA in PBS. One lobe was used for histological analysis by standard hematoxylin and eosin (H&E) staining (Tufts Comparative Pathology Services). A Nikon Eclipse E400 with a SPOT insight color digital camera was used to image the histology samples.
# [9] = test system: murine bone marrow derived macrophages phagosome; experiment: Phagosomal maturation assays with sensor beads; assay type: cell-based, mouse; settings: 10 μM
# Method: Carboxyfluorescein (pH readout), DQ-BSA/Alexa Fluor 594 (AF594) (proteolysis readout), and 10,10′-Bis[3-carboxylpropyl]-9,9′-biacridinium (BAC)/AF594 (Cl^− readout) beads were generated as previously described (Podinovskaia et al, 2013; Tan et al, 2013; Tan et al, 2017; Yates et al, 2008). Bone marrow-derived macrophages were isolated from C57BL/6J mice (Jackson Laboratories) and maintained as described above. 2×10^5 macrophages/well were seeded into 96-well clear bottom black plates, and utilized in assays one-two days post-seeding. […] Assay buffer consisted of PBS, pH 7.2, supplemented with 5% FBS, 5 mM dextrose, 1 mM CaCl2, 2.7 mM KCl, and 0.5 mM MgCl2 in the case of assays with the carboxyfluorescein or DQ-BSA/AF594 beads (Buter et al, 2019; Dutta et al, 2020). For assays with the BAC/AF594 beads, assay buffer consisted of PBS, pH 7.2, supplemented with 5% FBS, 5 mM dextrose, 1 mM calcium acetate, 1.35 mM K2SO4, and 0.5 mM MgSO4 (Tan et al, 2013). Sensor beads at ˜2-5 beads/macrophage in appropriate assay buffer were finally added, with data acquisition on a Biotek Synergy H1 microplate reader with bottom read signal detection started within 2-3 minutes of bead addition. Excitation/emission wavelengths were 450 nm/520 nm and 490 nm/520 nm for carboxyfluorescein, 490 nm/520 nm for DQ-BSA, 365 nm/505 nm for BAC, and 590 nm/617 nm for AF594. Each experiment was run with a total of 3-5 replicate wells/condition, with temperature maintained at 37° C. throughout the assay. Wells were read every 2 minutes for 2 hours for the carboxyfluorescein bead assays, every 2 minutes for 4 hours for the DQ-BSA/AF594 bead assays, and every 1 minute for 2 hours for the BAC/AF594 bead assays. Analyses of the results were performed as previously described (Buter et al, 2019; Dutta et al, 2020; Podinovskaia et al, 2013; Tan et al, 2013).
# [10] = molecular target: human CYP 450 2D6 (Homo sapiens, UniProt P10635); experiment: Human cytochrome P450 inhibition, 2D6; assay type: in vitro ADME; settings: 10 μM
# [11] = test system: Mtb; settings: PubChem AID 1259343, SID 340463129; cited from earlier work
# [12] = test system: Mtb; experiment: Mtb growth assay in cholesterol media (OD600); assay type: cell-based, Mycobacterium tuberculosis
# [13] = Human plasma stability; assay type: in vitro ADME; settings: after 5 h incubation
# Method: as §1
# [14] = test system: human CYP 450 3A4/5; experiment: Human cytochrome P450 inhibition, 3A4/5; assay type: in vitro ADME; settings: 10 μM
# [15] = Mouse liver microsomal stability; assay type: in vitro ADME; settings: mouse liver microsomes
# Method: as §1
# [16] = 250 mg/kg oral gavage 5 times a week for 2 weeks, started 2 weeks post-infection
# [17] = 250 mg/kg oral gavage for two or four weeks, started 6 weeks post-infection
# human CYP 450 2C19, sequence (P33261 whole entry): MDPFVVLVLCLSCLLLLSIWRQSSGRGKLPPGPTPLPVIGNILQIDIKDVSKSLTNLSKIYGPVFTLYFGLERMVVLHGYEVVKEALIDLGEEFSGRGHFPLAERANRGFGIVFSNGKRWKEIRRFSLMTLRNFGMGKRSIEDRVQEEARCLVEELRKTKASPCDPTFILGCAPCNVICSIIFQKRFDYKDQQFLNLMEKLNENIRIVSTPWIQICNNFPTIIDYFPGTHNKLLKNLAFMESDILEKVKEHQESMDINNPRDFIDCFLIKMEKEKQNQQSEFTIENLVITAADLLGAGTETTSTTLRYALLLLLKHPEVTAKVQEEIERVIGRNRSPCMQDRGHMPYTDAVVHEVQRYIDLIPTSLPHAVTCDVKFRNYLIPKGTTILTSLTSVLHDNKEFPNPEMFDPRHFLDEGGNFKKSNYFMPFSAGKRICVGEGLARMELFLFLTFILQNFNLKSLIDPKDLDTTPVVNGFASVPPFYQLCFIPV
# human CYP 450 2D6, sequence (P10635 whole entry): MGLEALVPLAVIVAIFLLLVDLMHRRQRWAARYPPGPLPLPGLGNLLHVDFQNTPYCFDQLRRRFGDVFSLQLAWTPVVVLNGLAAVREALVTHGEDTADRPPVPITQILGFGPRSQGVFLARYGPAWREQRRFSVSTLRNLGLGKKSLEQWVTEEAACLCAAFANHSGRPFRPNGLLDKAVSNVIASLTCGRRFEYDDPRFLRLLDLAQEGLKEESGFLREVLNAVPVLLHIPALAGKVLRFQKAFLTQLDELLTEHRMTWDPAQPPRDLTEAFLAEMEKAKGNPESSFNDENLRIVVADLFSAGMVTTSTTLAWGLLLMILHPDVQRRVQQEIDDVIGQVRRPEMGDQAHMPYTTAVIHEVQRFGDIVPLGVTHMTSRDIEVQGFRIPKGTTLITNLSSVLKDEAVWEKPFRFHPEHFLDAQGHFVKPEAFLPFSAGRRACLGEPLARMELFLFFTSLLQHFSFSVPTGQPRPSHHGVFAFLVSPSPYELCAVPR
smiles,measurement,setting,value
"CCSc1ncc(CN2CCN(c3nc4ccccc4o3)CC2)cn1 [Compound C6, 2-(4-((2-(ethylthio)pyrimidin-5-yl)methyl)piperazin-1-yl)benzo[d]oxazole]",protein binding to human plasma,[1],99.2%
same,% inhibition of CYP 2C19,[2],30.3%
same,protein binding to mouse plasma,[3],97.0%
same,intracellular accumulation in J774 cells,[4],dose-dependent accumulation
same,% inhibition of CYP 1A2,[5],< 1%
same,solubility kinetic,"[6]; PBS, pH 7.4, aqueous buffer, kinetic from dmso stock, Table 2",76.4 µM
same,solubility kinetic,[6]; pH 7.4 phosphate buffered saline (PBS),76.4 µM
same,Mtb growth in standard 7H9 media,[7],no effect
same,"Mtb growth in lungs (CFU), short-term infection",[8]; [16],significantly inhibited Mtb growth in the mice lungs
same,"lung histology, short-term infection",[8]; [16],less cellular infiltration
same,"lung bacterial load, longer-term infection",[8]; [17],significant decrease in bacterial load
same,"lung histopathology, longer-term infection",[8]; [17],improved histopathology
same,increase in [Cl−] during macrophage phagosomal maturation,[9]; BAC/AF594 beads,no significant effect
same,macrophage phagosomal proteolytic activity,[9]; DQ-BSA/AF594 beads,did not affect macrophage phagosomal proteolytic activity
same,macrophage phagosomal acidification,[9]; carboxyfluorescein beads,did not alter macrophage phagosomal acidification
same,% inhibition of CYP 2D6,[10],10.5%
same,growth inhibition call in previous cholesterol media screen,[11],positive for growth inhibition
same,effect of even chain fatty acids on growth inhibition in cholesterol media,"[12]; 10 μM, 4 mM acetate or 200 μM stearate",rescue inhibition
same,Mtb growth in cholesterol media (in words),"[12]; 10 μM, OD600",inhibited Mtb growth in cholesterol media
same,effect of odd chain fatty acids on growth inhibition in cholesterol media,"[12]; 10 μM, additional odd chain carbon source",do not rescue inhibition
same,effect of vitamin B12 on growth inhibition in cholesterol media,"[12]; 10 μM, vitamin B12 added",does not rescue inhibition
same,Growth inhibition in cholesterol media phenotype,[12]; compared to C6,Y
same,"stability in human plasma, % remaining",[13],94.6%
same,% inhibition of CYP 3A4/5,[14],< 1%
same,MLM t1/2,[15],48.5 min
